Measured values from PubChem BioAssay (NCI).
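How tested: cells in 96-well plates exposed to compound for 48 hours at five concentrations. Here, GI50 denotes the concentration required for 50% inhibition of growth. Definition used: TGI = concentration required for complete inhibition of growth.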

Assays:
Assay in all cases: inhibition of tumour cell growth, NCI panel, 48 h
[1] = test system: M14 melanoma
[2] = test system: MOLT-4 leukemia
[3] = test system: NCI-H23 lung
[4] = test system: OVCAR-3 ovarian
[5] = test system: OVCAR-8 ovarian
[6] = test system: SF-295 CNS
[7] = test system: SK-MEL-2 melanoma
[8] = test system: SK-MEL-28 melanoma
[9] = test system: SNB-75 CNS
[10] = test system: UACC-62 melanoma

| Compound | GI50 [1] | TGI [1] | GI50 [2] | GI50 [3] | TGI [3] | GI50 [4] | TGI [4] | GI50 [5] | TGI [6] | GI50 [7] | TGI [7] | GI50 [8] | TGI [8] | GI50 [9] | TGI [9] | GI50 [10] | TGI [10] | TGI [2] [µM] | TGI [5] [µM] | GI50 [6] [µM] |
| --- | --- | --- | --- | --- | --- | --- | --- | --- | --- | --- | --- | --- | --- | --- | --- | --- | --- | --- | --- | --- |
| C[n+]1c2cc(N)ccc2cc2ccc(N)cc21 | 1.68 µM [middle of 4 runs] | 3.75 µM [middle of 4 runs] | 547 nM [middle of 4 runs] | 1.27 µM [middle of 4 runs] | 4.49 µM [middle of 4 runs] | 1.58 µM [middle of 4 runs] | 7.45 µM [middle of 4 runs] | 565 nM [middle of 4 runs] | 5.63 µM [middle of 4 runs] | 1.47 µM [middle of 4 runs] | 5 µM [middle of 4 runs] | 1.96 µM [middle of 4 runs] | 4.78 µM [middle of 4 runs] | 1.55 µM [middle of 4 runs] | 4.05 µM [middle of 4 runs] | 1.26 µM [middle of 4 runs] | 2.86 µM [middle of 4 runs] |  |  |  |
| Cc1nc2ccccc2c(/C=C/c2ccc(Cl)cc2)c1C(=O)/C=C/c1ccc(C(F)(F)F)cc1 | 0.41 µM | 1.88 µM | 0.332 µM | 0.827 µM | 2.78 µM | 0.292 µM | 0.82 µM | 0.433 µM | 2.79 µM | 0.627 µM | 2.17 µM | 0.369 µM | 1.29 µM | 1.28 µM | 2.57 µM | 0.939 µM | 2.29 µM | > 100 | 2.2 | 1.47 |
| O=C(NCCCO)c1cc(Cl)ccc1O | 3.85 µM | 15.7 µM | 3.22 µM | 2.02 µM | 8.3 µM | 1.6 µM | 9.11 µM | 2.38 µM | 6.01 µM | 2.82 µM | 6.54 µM | 4.45 µM | 17.3 µM | 2.44 µM | 15.1 µM | 3.09 µM | 15.8 µM | 15.1 | 13 | 1.36 |
| Cc1cc(N2CCOCC2)nc(N[C@@H]2CCC[C@H](Nc3ccnc4cc(Cl)ccc34)C2)n1 | 2 µM | 3.7 µM | 2.28 µM | 5.97 µM | 21.2 µM | 2.83 µM | 8.62 µM | 2.97 µM | 2.97 µM | 2.07 µM | 4.02 µM | 2.01 µM | 3.8 µM | 1.6 µM | 4.01 µM | 1.82 µM | 3.43 µM | 7.19 | 8.49 | 1.52 |
| CC(Nc1ccc(S(=O)(=O)N=C(N)N)cc1)c1c2ccccc2nc2ccccc12 (configuration not stated) |  | > 100 µM |  |  | 88.9 µM |  | > 10 µM |  | > 100 µM |  | 61.9 µM |  | > 100 µM |  | 79.7 µM |  | > 10 µM | 48.1 | 76.8 |  |
| CN(Cc1ccccc1)c1ccc(CO)c(Cl)c1 | 29 µM | > 100 µM | 26.4 µM | 17.9 µM | > 100 µM | 3.36 µM | 12.9 µM | 20.7 µM | > 76.8 µM | 8.78 µM | 49.2 µM | 50.5 µM | > 100 µM | 22.4 µM | > 80.7 µM | 0.384 µM | 3.93 µM | > 82.6 | > 100 | 4.25 |
| O=C(c1ccccc1)C(CN1CCCCC1)c1ccccc1 (configuration not stated) | 0.865 µM | 2.63 µM | 1.96 µM | 1.65 µM | 3.78 µM | 1.78 µM | 3.25 µM | 1.7 µM | 17.5 µM | 2.85 µM | 8.73 µM | 3.25 µM | 11.4 µM | 3.46 µM | 15.4 µM | 1.98 µM | 4.8 µM | 5.09 | 4.36 | 4.85 |
| CSc1nc(NC2OC(COC(C)=O)C(OC(C)=O)C(OC(C)=O)C2OC(C)=O)c2c(n1)OCC2=O (configuration not stated) |  | > 100 µM |  |  | > 100 µM |  | > 100 µM |  | > 100 µM |  | > 100 µM |  | > 100 µM |  | > 100 µM |  | > 100 µM | > 100 | > 100 |  |
| O=Nc1ccc(NO)c2ccccc12 | 16.5 µM | 31.3 µM | 26.6 µM | 7.03 µM | 23.5 µM | 2.37 µM | 12 µM | 3.24 µM | 28.6 µM | 18.3 µM | 34.4 µM | 15.1 µM | 28.6 µM | 18.3 µM | 32.4 µM | 4 µM | 16.4 µM | 88.1 | 14.6 | 14.8 |
| NC(=O)/N=C1/CCC2C3CCCC2C13 |  | > 100 µM |  |  | > 100 µM |  | > 100 µM |  | > 100 µM |  | > 100 µM |  | > 100 µM |  | > 100 µM |  | > 100 µM | > 100 | > 100 |  |
| C#CCSc1cc(Cl)c(C)cc1S(=O)(=O)Nc1nc2ccccc2o1 | 32.1 µM | 67.9 µM | 41.8 µM | 35.9 µM | 87.8 µM | 31.9 µM | 76.9 µM | 40.4 µM | 61.2 µM | 21.6 µM | 43.6 µM | 54.7 µM | > 100 µM | 85.8 µM | > 100 µM | 25.5 µM | 61.9 µM | > 100 | > 100 | 25.5 |
